Experimental data reported in US20230286946A1, “DIFLUOROMETHYL-PYRIDIN-2-YL TRIAZOLES” (Boehringer Ingelheim International GmbH, priority 2020, published 2023).

Each compound was assayed against T1, human GABAA α5β3γ2s receptor (Homo sapiens, UniProt P18507+P31644) (assay: Assay A: in vitro inhibition of 3H-flumazenil binding, HEK cells expressing the human GABAA α5β3γ2s receptor). Settings: compounds of the present invention; read-out: Assay A: GABAA α5 β3 γ2S Ki.
T1 sequence (P18507 1-475): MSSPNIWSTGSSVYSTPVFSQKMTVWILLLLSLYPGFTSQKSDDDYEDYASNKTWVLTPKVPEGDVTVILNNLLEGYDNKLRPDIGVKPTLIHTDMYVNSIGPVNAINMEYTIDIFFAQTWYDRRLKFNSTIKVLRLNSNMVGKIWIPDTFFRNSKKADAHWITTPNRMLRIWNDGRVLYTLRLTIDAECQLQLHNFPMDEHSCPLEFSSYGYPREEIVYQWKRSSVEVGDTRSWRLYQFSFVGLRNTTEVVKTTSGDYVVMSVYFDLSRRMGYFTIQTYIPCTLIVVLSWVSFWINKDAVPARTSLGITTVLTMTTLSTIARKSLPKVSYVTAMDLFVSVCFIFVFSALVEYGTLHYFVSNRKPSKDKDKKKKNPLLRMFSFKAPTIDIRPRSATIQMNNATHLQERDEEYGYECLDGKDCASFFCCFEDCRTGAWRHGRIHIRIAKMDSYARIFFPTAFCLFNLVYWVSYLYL
T1 sequence (P31644 1-462): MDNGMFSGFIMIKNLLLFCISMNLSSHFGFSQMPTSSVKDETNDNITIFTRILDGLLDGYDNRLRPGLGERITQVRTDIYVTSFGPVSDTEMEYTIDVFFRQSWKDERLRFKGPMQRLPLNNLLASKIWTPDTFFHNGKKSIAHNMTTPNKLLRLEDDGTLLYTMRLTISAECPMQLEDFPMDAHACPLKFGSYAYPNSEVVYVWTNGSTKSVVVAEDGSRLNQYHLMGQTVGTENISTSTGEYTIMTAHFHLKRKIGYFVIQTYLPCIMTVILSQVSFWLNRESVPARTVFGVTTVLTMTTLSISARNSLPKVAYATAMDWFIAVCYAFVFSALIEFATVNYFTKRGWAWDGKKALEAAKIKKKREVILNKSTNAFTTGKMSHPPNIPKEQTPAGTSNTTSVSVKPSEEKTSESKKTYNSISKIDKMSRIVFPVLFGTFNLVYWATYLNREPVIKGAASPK
Description: Cell Cultures and Membrane Preparation
HEK-293 cell lines with stable expression of recombinant human GABAA α5ß3 γ2s receptors (plasmid H46/E9/B10) are seeded in T175 polystyrene flasks or roller bottles (1700 cm^2, Fisher Scientific CCI-431191), and cultured (37° C., 5% CO2) in Dulbecco's Modified Eagle Medium (DMEM) with GlutaMAX™ supplemented with 10% fetal bovine serum and one or both of the following antibiotics: hygromycin B ([…]; γ2 subunit) or G418 (0.5 mg/ml; […]).
When the cultures reach confluency, the DMEM is removed and the cells are washed (10 ml for T175 flasks; 50 ml for roller bottles) once in Dulbecco's Phosphate Buffered Saline (DPBS). Following addition of DPBS to the cultures (10 ml for T175 flasks; 100 ml for roller bottles) for approximately 5 min cells are easily detached from the surface by shaking or tapping the flask gently. The cell suspension is transferred to Falcon tubes and centrifuged at 23,500×g for 10 min at 2° C. The pellet is washed once in 15 ml Tris-citrate buffer (50 mM, pH 7.1) using an Ultra-Turrax homogenizer and centrifuged at 2° C. for 10 min at 27,000×g. The washed pellet is re-suspended in 15 ml Tris-citrate buffer and frozen at −80° C. until the day of the binding experiment.
On the day of the experiment the cell membrane preparation is thawed and centrifuged at 2° C. for 10 min at 27,000×g. The pellet is re-suspended, using an Ultra-Turrax homogenizer in Tris-citrate buffer, to 15-50 µg protein per assay and then used for binding assays.
Non-specific binding is determined using clonazepam ([…]).
All dilutions of test compounds and incubation of assay are performed in glass vials/96-vial plates. […] Compounds are dissolved in 100% DMSO (10 mM stock), diluted in 48% ethanol-water, and tested in triplicate in serial 1:3 or 1:10 dilutions. When screening large numbers of compounds only one concentration of each compound is tested in single wells. Reference compounds are not included routinely, but for each experiment performed total and nonspecific binding is compared to data obtained during validation of the assay.
Binding is either terminated by rapid filtration onto
1) Whatman GF/C glass fibre filters using a Brandel Cell harvester, followed by 5 washes with 1 ml ice-cold buffer or onto 2) UniFilter GF/C glass fibre filter plates using a Tomtec cell harvester, followed by washing with approximately 5 ml ice-cold buffer.
The amount of radioactivity on the filters is determined by conventional liquid scintillation counting using a
1) Tri-Garb™ counter (PerkinElmer Life and Analytical Sciences) for separate large filters or
2) Topcount™ counter (PerkinElmer Life and Analytical Sciences) for 96-well filter plates.
Specific binding is total binding minus non-specific binding.
The IC50 value for a test compound is determined based on the equation: […]
where B is the binding in percentage of total specific binding; C is the concentration of test compound; and n is the Hill coefficient. For screening purposes n is set to 1. The IC50 value is calculated from the concentration response curves by the non-linear regression method using the curve-fitting program GraphPad Prism.
The Ki value for a test compound can be calculated from the IC50 value using the equation by Cheng and Prusoff: […]

SMILES	Ki
Cc1nnn(-c2ccc(C(F)F)cn2)c1COc1ccc(-c2cc[nH]n2)nn1 [Example 5]	16 nM
Cc1nnn(-c2ccc(C(F)F)cn2)c1COc1ccc(-n2cnc(C#N)c2)nn1 [Example 42, 1-[6-({1-[5-(difluoromethyl)pyridin-2-yl]-4-methyl-1H-1,2,3-triazol-5-yl}methoxy)pyridazin-3-yl]-1H-imidazole-4-carbonitrile]	0.014 nM
Cc1nnn(-c2ccc(C(F)F)cn2)c1COc1ccc(-c2cnccn2)nn1 [Example 56, 3-({1-[5-(difluoromethyl)pyridin-2-yl]-4-methyl-1H-1,2,3-triazol-5-yl}methoxy)-6-(pyrazin-2-yl)pyridazine]	0.01 nM

Same assay, conditions: read-out: Assay A: GABAA α 5 β 3 γ 2s Ki

SMILES	Ki
Cc1nnn(-c2ccc(C(F)F)cn2)c1COc1ccc(-c2ccc(=O)n(C)c2)nn1 [Example 1, 5-[6-({1-[5-(difluoromethyl)pyridin-2-yl]-4-methyl-1H-1,2,3-triazol-5-yl}methoxy)pyridazin-3-yl]-1-methyl-1,2-dihydropyridin-2-one]	10 nM
Cc1nnn(-c2ccc(C(F)F)cn2)c1COc1ccc(-c2cnc(N)nc2)nn1 [Example 2]	15 nM
Cc1cc(-c2ccc(OCc3c(C)nnn3-c3ccc(C(F)F)cn3)nn2)cnn1 [Example 3]	13 nM
Cc1nnn(-c2ccc(C(F)F)cn2)c1COc1ccc(-c2cn[nH]c2)nn1 [Example 4]	17 nM
Cc1nnn(-c2ccc(C(F)F)cn2)c1COc1ccc(-c2cc[nH]n2)nn1 [Example 5]	16 nM
Cc1nnn(-c2ccc(C(F)F)cn2)c1COc1ccc(-c2cccc(C(N)=O)c2)nn1 [Example 6]	15 nM
Cc1nnn(-c2ccc(C(F)F)cn2)c1COc1ccc(-c2cnn(CC#N)c2)nn1 [Example 7]	26 nM
Cc1nnn(-c2ccc(C(F)F)cn2)c1COc1ccc(-c2ccc(C#N)nc2)nn1 [Example 8]	18 nM
Cc1nnn(-c2ccc(C(F)F)cn2)c1COc1ccc(-c2ccc(C#N)s2)nn1 [Example 12]	19 nM
CNc1cccc(-c2ccc(OCc3c(C)nnn3-c3ccc(C(F)F)cn3)nn2)n1 [Example 14]	33 nM
Cc1n[nH]c(C)c1-c1ccc(OCc2c(C)nnn2-c2ccc(C(F)F)cn2)nn1 [Example 15]	40 nM
Cc1nnn(-c2ccc(C(F)F)cn2)c1COc1ccc(-c2ccc(S(C)(=O)=O)nc2)nn1 [Example 16]	21 nM
Cc1nnn(-c2ccc(C(F)F)cn2)c1COc1ccc(-c2ccnnc2)nn1 [Example 17]	16 nM
Cc1ncc(-c2ccc(OCc3c(C)nnn3-c3ccc(C(F)F)cn3)nn2)o1 [Example 18]	14 nM
Cc1nnn(-c2ccc(C(F)F)cn2)c1COc1ccc(-c2ccc(N)nc2)nn1 [Example 19]	17 nM
Cc1nnn(-c2ccc(C(F)F)cn2)c1COc1ccc(-c2c[nH]c(=O)c(F)c2)nn1 [Example 20]	16 nM
CCn1cc(-c2ccc(OCc3c(-c4ccc(C(F)F)cn4)nnn3C)nn2)cn1 [Example 22]	19 nM
Cn1nnc(-c2ccc(C(F)F)cn2)c1COc1ccc(-c2ccc(S(C)(=O)=O)nc2)nn1 [Example 23]	49 nM
Cn1nnc(-c2ccc(C(F)F)cn2)c1COc1ccc(-c2cn[nH]c2)nn1 [Example 24]	32 nM

SMILES	Ki
Cn1nnc(-c2ccc(C(F)F)cn2)c1COc1ccc(-c2ccc(N)nc2)nn1 [Example 25]	23 nM
Cn1nnc(-c2ccc(C(F)F)cn2)c1COc1ccc(-c2cccc(C(N)=O)c2)nn1 [Example 28]	24 nM
Cc1c(-c2ccc(OCc3c(-c4ccc(C(F)F)cn4)nnn3C)nn2)cc(C#N)n1C [Example 29]	19 nM
Cc1nn(C)cc1-c1ccc(OCc2c(-c3ccc(C(F)F)cn3)nnn2C)nn1 [Example 30]	24 nM
COc1ncc(-c2ccc(OCc3c(-c4ccc(C(F)F)cn4)nnn3C)nn2)cn1 [Example 31]	23 nM
Cn1nnc(-c2ccc(C(F)F)cn2)c1COc1ccc(-c2cnn(C3CCC3)c2)nn1 [Example 32]	18 nM
Cc1c(-c2ccc(OCc3c(-c4ccc(C(F)F)cn4)nnn3C)nn2)cnn1C [Example 33]	24 nM
Cn1nnc(-c2ccc(C(F)F)cn2)c1COc1ccc(-c2cnc3nonc3c2)nn1 [Example 35]	49 nM
Cc1nnn(-c2ccc(C(F)F)cn2)c1COc1ccc(-n2cc(C#N)cn2)nn1 [Example 37]	11 nM
Cc1nnn(-c2ccc(C(F)F)cn2)c1COc1ccc(-n2ncnc2C)nn1 [Example 38]	12 nM
Cn1nnc(-c2ccc(C(F)F)cn2)c1COc1ccc(-c2cnccn2)nn1 [Example 39]	39 nM
Cc1nnn(-c2ccc(C(F)F)cn2)c1COc1ccc(-n2cnc(C#N)c2)nn1 [Example 42, 1-[6-({1-[5-(difluoromethyl)pyridin-2-yl]-4-methyl-1H-1,2,3-triazol-5-yl}methoxy)pyridazin-3-yl]-1H-imidazole-4-carbonitrile]	14 nM
Cc1nnn(-c2ccc(C(F)F)cn2)c1COc1ccc(-n2nccn2)nn1 [Example 43]	28 nM
Cc1ncnn1-c1ccc(OCc2c(-c3ccc(C(F)F)cn3)nnn2C)nn1 [Example 48, 3-({4-[5-(difluoromethyl)pyridin-2-yl]-1-methyl-1H-1,2,3-triazol-5-yl}methoxy)-6-(5-methyl-1H-1,2,4-triazol-1-yl)pyridazine]	82 nM
Cn1nnc(-c2ccc(C(F)F)cn2)c1COc1ccc(-n2cc(C#N)cn2)nn1 [Example 49]	25 nM
Cn1nnc(-c2ccc(C(F)F)cn2)c1COc1ccc(-n2cccn2)nn1 [Example 50]	22 nM
Cn1nnc(-c2ccc(C(F)F)cn2)c1COc1ccc(-n2cnc(C#N)c2)nn1 [Example 52]	35 nM
Cn1nnc(-c2ccc(C(F)F)cn2)c1COc1ccc(-n2ccc(C#N)n2)nn1 [Example 53]	19 nM
Cc1nnn(-c2ccc(C(F)F)cn2)c1COc1ccc(-c2cnccn2)nn1 [Example 56, 3-({1-[5-(difluoromethyl)pyridin-2-yl]-4-methyl-1H-1,2,3-triazol-5-yl}methoxy)-6-(pyrazin-2-yl)pyridazine]	10 nM
